Patent publication US20220404374A1, “METHOD FOR DETERMINING WHETHER OR NOT A SUBJECT HAS A PARKINSONIAN CONDITION” (UNIVERSITE DU LUXEMBOURG, priority 2019, published 2022)

Experiments:
[1] = tested on: HiTox strains of yeast expressing human alpha-synuclein; assay: toxicity assays of 2-HP in HiTox strains of yeast expressing human alpha-synuclein (growth phenotyping); assay type: cell-based
Protocol: Yeast cells were grown in synthetic complement (SC) media containing 6.7 g/L yeast nitrogen base without amino acids, 5 g/L ammonium sulfate supplemented with 2 g/L SC. Media was autoclaved and the carbon source (8% raffinose or galactose) was added to a final concentration of 2%.
Four fresh single colonies of the Hitox strain and its respective control strain were inoculated from SC-2% glucose plates into 5 mL SC-2% raffinose and incubated overnight with shaking (200 rpm) at 30° C. After ≈20 h, overnight cultures were diluted to OD 0.5 and 2 μL of the yeast cultivation was added to 78 μL drug containing media to a final optical density of 0.0125 in a 384-well microplate. 2-HP was diluted in SC-2% raffinose/galactose and tested at different concentrations (1-100 mM). Finally, the plates are measured in a microplate reader (TECAN™ Infinite M200Pro), at an interval of 10 minutes during 72 h at 30° C. Yeast growth phenotyping was performed as previous described (Jung et al. 2015). Final biomass was corrected using the GATHODE software (Jung et al. 2015). The OD600 at 48 h was taken for the quantification.

[2] = tested on: wildtype mice; assay: adhesive removal test in mice after 2-HP injection into the brain; assay type: in vivo; details: higher 2-HP concentrations injected into the brain, 15 days post-injection, vs PBS
Protocol: The in vivo work testing for effects of 2-HP in a mouse model lead to results from a small-scale 15-day experiment. In this experiment, 2-HP was injected at several concentrations (5, 50 and 100 mM) into the brain of transgenic mice overexpressing human alpha-synuclein, and of wildtype control mice.

[3] = tested on: enteric neurons; assay: toxicity of 2-HP in enteric neurons (MTT cell viability assay); assay type: cell-based
Protocol: Enteric neurons were cultured in differentiation medium, consisting on Neurobasal (Invitrogen, 21103049) supplemented with 1:200 N2 (Invitrogen, 17502048), 1:100 L-Glutamine (Invitrogen, 25030-024), 1:100 B-27 without Vitamin A (Life Technologies, 12587-010), 1:100 Penicillin/Streptomycin (Invitrogen, 15140122), 25 ng/mL GDNF (Peprotech, 450-10) and 100 μM Ascorbic Acid (Sigma, A5960). Cells were cultured for 21 days in a 6-well plate, then detached with Accutase (Sigma, A6964), and replated into a 96-well plate. Cells were maintained under differentiating conditions until day 31, when they were treated with increasing concentrations of 2-hydroxypyridine (Sigma, H56800). Tested concentrations were as follows: 1 μM, 3 μM, 6 μM, 10 μM, 30 μM, 60 μM, 100 μM, 300 μM, 600 μM, 1 mM and 3 mM.
2-hydroxypyridine was reconstituted to 10 mM in the differentiation medium described above.
Cells were treated for 24 h, then cell viability was assessed performing a Tetrazolium (MTT) assay. Thiazolyl Blue tetrazolium Bromide (Sigma, M5655) was reconstituted to a 5 mg/mL solution in differentiation media and filtered. 10 μL of the solution were then added to every well containing 100 μL of media. Plate was incubated for 2 h in a normal incubator (37° C., 5% CO2). […] Cells were disaggregated by pipetting vigorously and absorbance was read at 570 nm, using the microplate Cytation 5M reader (Biotek).

[4] = tested on: IL-1b mRNA expression; assay: IL-1b mRNA expression (qPCR) in murine bone-marrow derived macrophages; assay type: cell-based; details: 10 mM 2-HP, murine BMDMs
Protocol: NLRP3 inflammasome activation is thought to play a role in the pathogenesis of neurodegenerative disorders, and increased levels of this inflammasome and of the related cytokine IL-1b have been detected in Parkinson's patients (Guan & Han, 2020). […] Inflammasome activation was evaluated with qPCR for IL-1b expression (normalized to β-actin), considering the fold change relative to 0 mM 2-HP of each time point.

[5] = control strain, higher concentration of 2-HP (FIG. 3C)

Oc1ccccn1 [2-HP, 2-hydroxypyridine]
dose at which 2-HP is selectively toxic to transgenic alpha-synuclein expressing yeast ([1]; HiTox yeast expressing human alpha-synuclein vs control strain): 1 mM | lag time of growth curve [1, 5]: prolonged | yield of growth curve [1, 5]: unaffected | toxic dose-response, galactose ([1]; galactose, alpha-synuclein induced (FIG. 3B), HiTox strains vs control strain): A toxic dose-response can be observed in the HiTox strains, but not in the control strain | toxic dose-response, raffinose ([1]; raffinose, alpha-synuclein not induced (FIG. 3A)): A toxic dose-response can be observed | performance in the adhesive removal test (sensorimotor function) [2]: perform worse | toxicity on enteric neurons at 3 mM [3]: significant changes | LD50 ([3]; enteric neurons, 24 h treatment, MTT): around 3 mM | increase in IL-1b mRNA (fold change relative to 0 mM 2-HP, normalized to β-actin) ([4]; 3 hours): 3.2 fold | increase in IL-1b mRNA (fold change relative to 0 mM 2-HP, normalized to β-actin) ([4]; 24 hours): 1.5 fold
